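Exposure lasted 48 hours, with cells grown in 96-well plates and compounds tested at five concentrations. TGI: total growth inhibition.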
Key:
Test in all cases: DTP human tumour cell line panel, 48 h
SF-295 CNS = system: SF-295 CNS
SN12C renal = system: SN12C renal
HCT-15 colon = system: HCT-15 colon
SK-MEL-5 melanoma = system: SK-MEL-5 melanoma
RPMI-8226 leukemia = system: RPMI-8226 leukemia
IGROV1 ovarian = system: IGROV1 ovarian
A549 NSCLC = system: A549 NSCLC
NCI-H226 lung = system: NCI-H226 lung
HL-60(TB) leukemia = system: HL-60(TB) leukemia
CCRF-CEM leukemia = system: CCRF-CEM leukemia
PC-3 prostate = system: PC-3 prostate
NCI-H460 lung = system: NCI-H460 lung
KM12 colon = system: KM12 colon
OVCAR-4 ovarian = system: OVCAR-4 ovarian
OVCAR-5 ovarian = system: OVCAR-5 ovarian
SK-MEL-2 melanoma = system: SK-MEL-2 melanoma
HS 578T breast = system: HS 578T breast
786-0 renal = system: 786-0 renal
UACC-257 melanoma = system: UACC-257 melanoma
A498 renal = system: A498 renal
MOLT-4 leukemia = system: MOLT-4 leukemia
CAKI-1 renal = system: CAKI-1 renal
SNB-19 CNS = system: SNB-19 CNS
ACHN renal = system: ACHN renal
DU-145 prostate = system: DU-145 prostate
SK-OV-3 ovarian = system: SK-OV-3 ovarian
M14 melanoma = system: M14 melanoma
NCI/ADR-RES ovarian = system: NCI/ADR-RES ovarian
SR leukemia = system: SR leukemia
BT-549 breast = system: BT-549 breast
MCF7 breast = system: MCF7 breast
SNB-75 CNS = system: SNB-75 CNS
SK-MEL-28 melanoma = system: SK-MEL-28 melanoma
HCT-116 colon = system: HCT-116 colon
LOX IMVI melanoma = system: LOX IMVI melanoma
RXF 393 renal = system: RXF 393 renal
SW-620 colon = system: SW-620 colon
U251 CNS = system: U251 CNS
NCI-H23 lung = system: NCI-H23 lung
COLO 205 colon = system: COLO 205 colon
NCI-H522 lung = system: NCI-H522 lung
SF-268 CNS = system: SF-268 CNS
HOP-92 NSCLC = system: HOP-92 NSCLC
HOP-62 NSCLC = system: HOP-62 NSCLC
T-47D breast = system: T-47D breast
OVCAR-3 ovarian = system: OVCAR-3 ovarian
K-562 leukemia = system: K-562 leukemia
MDA-MB-435 = system: MDA-MB-435
SF-539 CNS = system: SF-539 CNS
TK-10 renal = system: TK-10 renal
MALME-3M melanoma = system: MALME-3M melanoma
HT29 colon = system: HT29 colon
OVCAR-8 ovarian = system: OVCAR-8 ovarian
MDA-MB-231 breast = system: MDA-MB-231 breast
UACC-62 melanoma = system: UACC-62 melanoma
EKVX NSCLC = system: EKVX NSCLC

Measured: TGI

CC(C)(C)c1ccc(OC(=O)Nc2ccc(O)c(C(=O)O)c2)cc1
> 100 µM: all assays above
